Results: patent US20230321059A1, “MEPYRAMINE FOR USE IN THE TOPICAL TREATMENT OF NEUROPATHIC PAIN” (Assistance Publique - Hopitaux de Paris, priority 2020, published 2023)
Where two headings read alike, the source gives them in different places.

Biological target: T1, human Nav1.7 (Homo sapiens, UniProt Q15858)
T1 construct: expressed in transfected cells; host or cells: HEK 293T
Experiment: Patch clamp recording of heterologously expressed human Nav1.7 currents in HEK 293T cells
Format: cell-based
Conditions: for IC50: 50-ms depolarizing pulse to 0 mV, HEK 293T cells, mean±SEM (n=4-10), read-out: IC50 for human Nav1.7 inhibition
Experimental: FIG. 1. A) Families of human Nav1.7 current traces in the presence of increasing concentrations of mepyramine (0-100 μM). The current was elicited by a 50-ms depolarizing pulse to 0 mV from a holding potential of −100 mV (top) or −60 mV (bottom). Voltage steps were applied every 15 s. B) Cumulative dose-response curves for human Nav1.7 inhibition by mepyramine derived from experiments as in A. The IC50 values were 4±0.1 μM at Vh of −60 mV (empty circles) or 15.3±0.1 μM at Vh of −100 mV (filled circles). Each data point is the mean±SEM (n=4-10). C) Representative I-V curve family of hNav1.7 currents recorded using a protocol (inset) where cells were depolarized to a variety of potentials from a holding potential of −100 mV. D) Normalized human Nav1.7 activation curves obtained from experiments as in C. Curves were fit by using a first-order Boltzmann relations (n=16).
Human embryonic kidney (HEK) 293T cells were cultured as described in Hao et al. (Neuron, 2013, 77:899-914) and were recorded 48 hours after co-transfection with human Nav1.7 (hNav1.7) and green fluorescent protein clones. Patch clamp recordings were performed using borosilicate electrodes (Harvard Apparatus) having a resistance of […] when filled with the intracellular solution. Recordings were made at room temperature (20-24° C.) using an Axopatch 200B amplifier (Axon Instruments), filtered at 1 kHz, and digitally sampled at 5-20 kHz. Data acquisition was performed with pClamp 10.2, and data were analyzed using Prism 4 software.
For voltage clamp protocols, currents were leak-subtracted by using a P/6 protocol. Voltage errors were minimized using 75-80% series resistance compensation. Intracellular pipette solution consisted of (mM): 130 CsCl, 10 Hepes, 8 NaCl, 0.4 NaGTP, 4 MgATP, 1 MgCl2, 1 CaCl2 and 10 EGTA (adjusted to pH7.3 with CsOH, ˜300 mOsm/l). […] Stock solution of Mepyramine […] was dissolved in distilled water. Cells were perfused with bath solution at flow rate of 5 mL/min.
The dose-response curve for mepyramine was fitted with the Hill equation: I/Imax=[M]^nH/(IC50^nH+[M]^nH), where IC50 is the half-maximal inhibitory concentration and nH the Hill coefficient. The activation curve (G-V) was fitted using Boltzmann function: G/Gmax=1/(1+exp^[(V1/2−V)/k]) where G/Gmax is the normalized conductance, V1/2 is the voltage of half-maximum conductance activation, and k is the steepness factor. Data were presented as mean±SEM.

[1] = HEK cells, in the absence of histamine and in the absence of H1 receptors

T1 sequence (Q15858 whole entry): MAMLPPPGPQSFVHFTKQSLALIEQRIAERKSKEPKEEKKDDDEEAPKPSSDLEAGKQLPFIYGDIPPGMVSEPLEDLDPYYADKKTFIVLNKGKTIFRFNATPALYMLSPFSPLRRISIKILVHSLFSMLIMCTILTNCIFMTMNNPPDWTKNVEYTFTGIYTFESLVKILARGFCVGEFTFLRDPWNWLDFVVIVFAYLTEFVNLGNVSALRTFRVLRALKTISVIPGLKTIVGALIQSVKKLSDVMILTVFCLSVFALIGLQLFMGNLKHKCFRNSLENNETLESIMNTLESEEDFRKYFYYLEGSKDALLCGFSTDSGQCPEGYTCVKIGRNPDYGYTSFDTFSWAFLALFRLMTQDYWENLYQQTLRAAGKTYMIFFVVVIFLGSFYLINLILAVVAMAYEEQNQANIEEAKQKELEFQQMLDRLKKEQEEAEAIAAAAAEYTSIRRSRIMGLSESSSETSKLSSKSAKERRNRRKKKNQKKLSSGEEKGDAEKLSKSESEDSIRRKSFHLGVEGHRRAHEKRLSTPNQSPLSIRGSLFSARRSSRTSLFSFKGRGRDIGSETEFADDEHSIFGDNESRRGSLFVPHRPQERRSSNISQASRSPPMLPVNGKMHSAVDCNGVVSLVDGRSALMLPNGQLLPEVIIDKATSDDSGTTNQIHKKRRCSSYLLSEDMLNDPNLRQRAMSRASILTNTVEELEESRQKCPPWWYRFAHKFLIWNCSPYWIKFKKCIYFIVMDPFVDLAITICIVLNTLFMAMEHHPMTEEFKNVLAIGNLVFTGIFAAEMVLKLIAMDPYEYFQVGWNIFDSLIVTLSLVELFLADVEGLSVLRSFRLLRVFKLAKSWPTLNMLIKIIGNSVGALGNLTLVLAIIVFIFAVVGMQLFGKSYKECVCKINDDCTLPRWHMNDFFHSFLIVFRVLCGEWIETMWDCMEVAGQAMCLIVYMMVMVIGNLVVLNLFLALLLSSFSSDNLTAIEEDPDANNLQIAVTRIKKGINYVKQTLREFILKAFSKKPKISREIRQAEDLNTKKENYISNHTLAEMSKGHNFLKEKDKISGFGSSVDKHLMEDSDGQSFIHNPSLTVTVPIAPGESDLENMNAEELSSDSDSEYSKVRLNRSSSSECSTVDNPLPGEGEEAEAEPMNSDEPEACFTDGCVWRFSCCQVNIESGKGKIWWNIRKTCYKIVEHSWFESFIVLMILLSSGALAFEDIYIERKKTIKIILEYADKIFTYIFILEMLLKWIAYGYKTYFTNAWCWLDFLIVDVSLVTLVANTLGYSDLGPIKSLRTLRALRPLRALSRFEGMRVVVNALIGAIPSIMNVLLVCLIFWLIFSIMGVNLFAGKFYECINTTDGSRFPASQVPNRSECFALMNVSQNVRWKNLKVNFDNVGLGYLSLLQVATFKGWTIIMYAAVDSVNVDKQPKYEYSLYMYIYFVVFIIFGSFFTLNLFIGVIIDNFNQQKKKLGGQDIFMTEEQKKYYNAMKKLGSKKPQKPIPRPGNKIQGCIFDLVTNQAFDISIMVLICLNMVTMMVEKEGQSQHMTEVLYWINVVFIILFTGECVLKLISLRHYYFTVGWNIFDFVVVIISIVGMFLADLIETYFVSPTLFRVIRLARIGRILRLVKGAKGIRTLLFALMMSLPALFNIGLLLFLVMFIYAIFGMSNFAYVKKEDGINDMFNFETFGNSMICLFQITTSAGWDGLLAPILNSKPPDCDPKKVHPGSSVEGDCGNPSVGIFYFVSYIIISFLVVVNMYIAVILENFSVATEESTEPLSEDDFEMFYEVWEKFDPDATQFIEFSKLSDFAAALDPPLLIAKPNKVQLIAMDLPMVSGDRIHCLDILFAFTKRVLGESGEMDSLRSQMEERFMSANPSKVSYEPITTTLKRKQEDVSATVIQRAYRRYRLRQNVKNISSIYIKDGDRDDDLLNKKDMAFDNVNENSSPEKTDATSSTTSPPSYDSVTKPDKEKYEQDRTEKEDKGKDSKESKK

- Dependence of the effect on H1 receptors [1]: independent of the H1 receptors
- Inhibition of heterologously expressed human Nav1.7 channels [1]: inhibits
- IC50 (Vh of −60 mV): 4 ± 0.1 µM
- IC50 (Vh of −100 mV): 15.3 ± 0.1 µM
Structure (SMILES): COc1ccc(CN(CCN(C)C)c2ccccn2)cc1 [mepyramine, N,N-dimethyl-N′-(4-methoxybenzyl)-N′-(2-pyridyl) ethylenediamine]
